{
  "source": "patent US9034793B2",
  "about": "“Use of ribose to enhance plant growth” (Bioenergy, Inc., priority 2002, dated 2015)",
  "key": {"cut flower": {"system": "cut flower", "conditions": "storage solution containing the compound; cited from earlier work"}, "bean seeds [1]": {"system": "bean seeds", "assay": "Root growth assessment (Example 3)", "format": "in vivo", "conditions": "for Root appearance: 2 weeks, compared with water treated roots", "text": "Identical sized pots, containing the same consistency of soil media, were used in assessing root growth. Bean seeds of similar size were chosen. One seed was planted in each pot. The depth in the soil for each seed that was planted was the same. Paired pots (total of 3 pairs, 6 pots), each containing one bean seed, were used. One pair of pots received 2 teaspoons of water every other day (Group A). The second pair of pots received a low Ribose solution (1 teaspoon of D-ribose in 16 oz of water), each pot received 2 teaspoons of this low dose of Ribose every other day (Group B). The final pair of pots received a higher dose of Ribose (1 teaspoon of D-ribose in 4 oz of water), each pot received 2 teaspoons of this higher dose of Ribose every other day (Group C). In each pair of pots, roots were examined at week 1 and 2, by removing the roots of one pot only in each group at the designed test time point with soil emersion in a bucket of water. At week 2 all remaining pots had shoots emerging from the top soil. The roots were weighed and measured for length. […] This discrepancy expanded when the roots were analyzed at 2 weeks. […] The weight of the roots treated with high dose Ribose were appreciably less in weight than both the water and low dose Ribose treated groups."}, "beans (B)": {"system": "beans (B)", "assay": "Transplants in garden, growth and hardening after transplantation: beans", "format": "in vivo, bean", "text": "(§1) Hosta (H. plantaginea grandiflora) plants were transplanted. The protocol was designed such that half of the plants were supplied with water alone and half of the plants received a ribose based solution, in which powdered D-ribose was mixed in water. All plants were transplanted at the same level in the soil and in like soil. All plants were watered at the same times of day, mid-morning and at dusk. Each plant received the same amount of water/watering (½ liter water at each watering). Results of plant growth data following transplantation are graphically depicted in FIGS. 1 and 2. [table]"}, "kohlrabi (K)": {"system": "kohlrabi (K)", "assay": "Transplants in garden, growth and hardening after transplantation: kohlrabi", "format": "in vivo", "text": "as §1"}, "[2]": {"system": "plants grown from seed (5 seeds per plot)", "assay": "Plant feeding with ribose for growth (Table 1)", "format": "in vivo, Hosta (H. plantaginea grandiflora)", "conditions": "for Unsprouted: of 5 seeds per plot", "text": "as §1"}, "bean seeds [3]": {"system": "bean seeds", "assay": "Fertilization with ribose combined with nitrogen, phosphorus, potassium", "format": "in vivo", "conditions": "ribose combined with the fertilizers nitrogen, phosphorus, and potassium", "procedure": "D-ribose plus nitrogen, nitrogen alone, or placebo was administered to bean seeds and measurements of growth and yield was made as in Example 2. D-ribose plus phosphorus, phosphorus alone, or placebo was administered to bean seeds and measurements of growth and yield was made as in Example 2. D-ribose plus potassium, potassium alone, or placebo was administered to bean seeds and measurements of growth and yield was made as in Example 2. D-ribose plus the combination, the combination alone, or placebo was administered to bean seeds and measurements of growth and yield was made as in Example 2."}, "[4]": {"conditions": "Week 1 following seed implantation"}, "[5]": {"conditions": "Week 2, plants cut off above the soil, just the roots weighed"}, "[6]": {"conditions": "29-Sep, first measure after transplant"}},
  "note": "Values joined by “and” are separate entries in the source; they are usually repeats but may differ in a detail not shown here. Equal entries are not always repeated.",
  "data": [
    {"smiles": "CCSC[C@@H](O)[C@@H](O)[C@@H](O)C=O", "note": "[5-deoxy-5-ethylthio-D-ribose]", "values": [
      {"measurement": "Bloom life of a cut flower", "setting": "cut flower", "result": "extend bloom life"}
    ]},
    {"smiles": "O=C[C@H](O)[C@H](O)[C@H](O)CO", "note": "[High Ribose, D-ribose]", "values": [
      {"measurement": "Root appearance", "setting": "bean seeds [1]; listed as high dose Ribose", "result": "thick"},
      {"measurement": "Root Length", "setting": "bean seeds [1]; [4]", "result": 13.8, "unit": "cm"},
      {"measurement": "Root Weight", "setting": "bean seeds [1]; [4]", "result": 1.46, "unit": "gm"},
      {"measurement": "Root Length", "setting": "bean seeds [1]; Week 2", "result": 14.7, "unit": "cm"},
      {"measurement": "Root Weight", "setting": "bean seeds [1]; [5]", "result": 0.26, "unit": "gm"},
      {"measurement": "Root Weight", "setting": "bean seeds [1]; Week 2, plants cut off above the soil, just the roots weighed, listed as high dose Ribose", "result": "less in weight than both the low dose Ribose and water groups"}
    ]},
    {"smiles": "O=C[C@H](O)[C@H](O)[C@H](O)CO", "note": "[Low Ribose, D-ribose]", "values": [
      {"measurement": "Root appearance", "setting": "bean seeds [1]; listed as low dose Ribose", "result": "thicker, shorter roots"},
      {"measurement": "Root Length", "setting": "bean seeds [1]; [4]", "result": 13.4, "unit": "cm"},
      {"measurement": "Root Weight", "setting": "bean seeds [1]; [4]", "result": 1.55, "unit": "gm"},
      {"measurement": "Root Length", "setting": "bean seeds [1]; Week 2", "result": 16.0, "unit": "cm"},
      {"measurement": "Root Weight", "setting": "bean seeds [1]; [5]", "result": 1.01, "unit": "gm"}
    ]},
    {"smiles": "O=C[C@H](O)[C@H](O)[C@H](O)CO", "note": "[R1, ribose]", "values": [
      {"measurement": "Bean measure to the Y", "setting": "beans (B); 1-Nov, after transplant", "result": "17 cm and 12 cm"},
      {"measurement": "Bean overall height", "setting": "beans (B); 1-Nov, after transplant", "result": "33.5 cm and 18 cm"},
      {"measurement": "Bean measure to the Y", "setting": "beans (B); 9-Sep, before moving", "result": "9 cm and 10 cm and 6 cm"},
      {"measurement": "Bean measure to the Y", "setting": "beans (B); 19-Oct, after transplant", "result": "16 cm and 10 cm"},
      {"measurement": "Bean measure to the Y", "setting": "beans (B); [6]", "result": "14 cm and 9.5 cm"},
      {"measurement": "Kohlrabi plant measure", "setting": "kohlrabi (K); 1-Nov, after transplant", "result": "11 and 15.5 and 9.8 and 18"},
      {"measurement": "Plant measures, Mean", "setting": "[2]; 23 June, 5 seeds per plot", "result": 1.65, "unit": "inches"},
      {"measurement": "Unsprouted", "setting": "[2]; 23 June", "result": 2},
      {"measurement": "#Plants/blossom", "setting": "[2]; Measured 8 July", "result": 1},
      {"measurement": "Plant measures, Mean", "setting": "[2]; Measured 8 July", "result": 2.9, "unit": "inches"}
    ]},
    {"smiles": "O=C[C@H](O)[C@H](O)[C@H](O)CO", "note": "[R2, ribose]", "values": [
      {"measurement": "Plant measures, Mean", "setting": "[2]; 23 June, 5 seeds per plot", "result": 3.3, "unit": "inches"},
      {"measurement": "Unsprouted", "setting": "[2]; 23 June", "result": 1},
      {"measurement": "#Plants/blossom", "setting": "[2]; Measured 8 July", "result": 3},
      {"measurement": "Plant measures, Mean", "setting": "[2]; Measured 8 July", "result": 5.8, "unit": "inches"}
    ]},
    {"smiles": "O=C[C@H](O)[C@H](O)[C@H](O)CO", "note": "[R3, ribose]", "values": [
      {"measurement": "Plant measures, Mean", "setting": "[2]; 23 June, 5 seeds per plot", "result": 6.05, "unit": "inches"},
      {"measurement": "Unsprouted", "setting": "[2]; 23 June", "result": 0},
      {"measurement": "#Plants/blossom", "setting": "[2]; Measured 8 July", "result": 4},
      {"measurement": "Plant measures, Mean", "setting": "[2]; Measured 8 July", "result": 9.3, "unit": "inches"}
    ]},
    {"smiles": "O=C[C@H](O)[C@H](O)[C@H](O)CO", "note": "[R4, ribose]", "values": [
      {"measurement": "Bean measure to the Y", "setting": "beans (B); 1-Nov, after transplant", "result": "10 cm and 13 cm"},
      {"measurement": "Bean overall height", "setting": "beans (B); 1-Nov, after transplant", "result": "27 cm and 30 cm"},
      {"measurement": "Bean measure to the Y", "setting": "beans (B); 9-Sep, before moving", "result": "6 cm and 8 cm"},
      {"measurement": "Bean overall height", "setting": "beans (B); 9-Sep, before moving", "result": "21 cm and 22 cm"},
      {"measurement": "Bean measure to the Y", "setting": "beans (B); 19-Oct, after transplant", "result": "8.75 cm and 12 cm"},
      {"measurement": "Bean overall height", "setting": "beans (B); 19-Oct, after transplant", "result": "26 cm and 28 cm"},
      {"measurement": "Bean measure to the Y", "setting": "beans (B); [6]", "result": "7.5 cm and 10.5 cm"},
      {"measurement": "Bean overall height", "setting": "beans (B); [6]", "result": "24 cm and 26 cm"},
      {"measurement": "Kohlrabi plant measure", "setting": "kohlrabi (K); 1-Nov, after transplant", "result": "16.5 and 19 and 22 and 21 and 15"},
      {"measurement": "Kohlrabi plant measure", "setting": "kohlrabi (K); 9-Sep, before moving", "result": "12 and 13 and 17 and 11"},
      {"measurement": "Kohlrabi plant measure", "setting": "kohlrabi (K); 19-Oct, after transplant", "result": "15 and 18 and 19.5 and 20 and 14.5"},
      {"measurement": "Kohlrabi plant measure", "setting": "kohlrabi (K); [6]", "result": "14 and 16 and 19 and 19.5 and 13"},
      {"measurement": "Plant measures, Mean", "setting": "[2]; 23 June, 5 seeds per plot", "result": 8.45, "unit": "inches"},
      {"measurement": "Unsprouted", "setting": "[2]; 23 June", "result": 0},
      {"measurement": "Plant measures, measured to the Y, single plants", "setting": "[2]; 23 June, planted 4 June, 2 tablespoons every other day (3x per week)", "result": "6.5 inches and 8 inches and 8.25 inches and 9.5 inches and 10 inches"},
      {"measurement": "#Plants/blossom", "setting": "[2]; Measured 8 July", "result": 5},
      {"measurement": "Plant measures, Mean", "setting": "[2]; Measured 8 July", "result": 11.1, "unit": "inches"},
      {"measurement": "Plant measures, measured to the Y, single plants", "setting": "[2]; Measured 8 July", "result": "8.75 inches and 10 inches and 10.5 inches and 11.75 inches and 12 inches"}
    ]},
    {"smiles": "O=C[C@H](O)[C@H](O)[C@H](O)CO", "note": "[Ribose, D-ribose]", "values": [
      {"measurement": "Improvement over solutions of ribose alone", "setting": "bean seeds [3]", "result": "slight incremental improvements"},
      {"measurement": "Root Length", "setting": "bean seeds [1]; [4]", "result": "slightly shorter in length"},
      {"measurement": "Root Weight", "setting": "bean seeds [1]; [4]", "result": "heavier"}
    ]}
  ]
}
